Assay results: US9107967B2, “Apparatus and method for treating stored crops infected with toxins” (Pureline Treatment Systems, LLC, priority 2010, dated 2015)

Tests used:
[1] = Application of aqueous ClO2 solution to wheat during tempering or sweating; conditions: 75 ppm aqueous ClO2 solution applied for 12 hours during tempering; approximately 12 ppm prior to application
Experimental: During processing of certain grains, such as wheat, a sweating or tempering step is used. During this step, the grain is contacted with water. The grain can be contacted with water for various amounts of time. In some examples the contacting occurs over night, in other examples the contacting occurs from 12-24 hours. This can be used as an opportunity the introduce an aqueous ClO2 solution.
Applicants conducted a study where a 75 ppm aqueous ClO2 solution was applied to wheat during tempering or sweating. The aqueous ClO2 solution was applied to the wheat for 12 hours.

[2] = Treatment of mycotoxin-infected corn kernels with aqueous ClO2 solution, then testing ground corn for mycotoxins; conditions: corn kernels exposed to 400 ppm aqueous ClO2 solution for two hours; untreated corn 9 ppm
Text: Applicants conducted a study in order to determine the effects of ClO2 on toxins. Applicants obtained corn infected with mycotoxins and mycotoxin-producing microorganisms. Applicants exposed the corn kernels to an aqueous ClO2 solution with a concentration of 400 ppm for two hours. Applicants drained the aqueous ClO2 solution from the corn. Applicants ground the corn and tested for the presence of mycotoxins. Applicants also ground untreated corn from the batch and tested that corn for the presence of mycotoxins.

[3] = Treatment of mash from mycotoxin-infected ground corn with heated aqueous ClO2 solution, then testing mash for mycotoxins; conditions: mash exposed to 200 ppm aqueous ClO2 solution heated to 185° F for two hours; untreated 12 ppm
Experimental: Applicants conducted another study in order to determine the effects of ClO2 on toxins. Applicants obtained corn infected with mycotoxins and mycotoxin-producing microorganisms. Applicants ground the corn kernels and mixed them with water to form a mash, similar to what is used in various fermentation plants. Applicants heated an aqueous ClO2 solution with a concentration of 200 ppm to 185° F. Applicants then exposed the mash to the heated aqueous chlorine dioxide solution for two hours. Applicants drained the aqueous ClO2 solution from the mash. Applicants tested the mash for the presence of mycotoxins. Applicants also tested untreated mash from the same batch for the presence of mycotoxins.

## [O][Cl+][O-] [ClO2, chlorine dioxide]
[1]
  concentration of Vomitoxin in wheat after application: approximately 1 ppm
[2]
  concentration of Vomitoxin in treated corn: 2.3 ppm
[3]
  concentration of Vomitoxin in treated corn (mash): 0.5 ppm
